Measured values published in patent US5089623A, “Certain imidate insecticides” (Imperial Chemical Industries Plc, priority 1990, dated 1992).

Key:
Format in all cases: in vivo
[1] = test system: Housefly [Musca domestica]; assay: Housefly insecticidal test (HF); conditions: per 25 female houseflies, 48 hours
[2] = test system: Tobacco Budworm [Heliothis virescens (Fabricius)] eggs; assay: Tobacco budworm egg test (TBW-E); conditions: percent in solution
[3] = test system: Cabbage Looper [Trichoplusia ni (Hubner)]; assay: Cabbage looper test (CL); conditions: second-instar larvae, 3-5 days, percent in solution
[4] = test system: Maize weevil [Sitophilus Zeamais (Motschulsky)]; assay: Maize weevil test (MW); conditions: adult weevils, treated corn seeds, 48 hours, percent in solution
Description: The compounds in Tables 1 and 2 above were tested for insecticidal activity using the following testing procedures. LC50 values, based on the results of these tests and calculated according to dosage-mortality curves, are expressed in Table 3.
Maize weevil [Sitophilus Zeamais (Motschulsky)]
Test compounds were diluted in a 50:50 acetone:water solution. Four corn seeds [Zea mays (L.)] which had been immersed in test solutions for 2-3 seconds and allowed to dry were placed in containers together with 10 adult weevils. The containers were covered and kept at a temperature of about 25° C. Mortality was recorded after 48 hours. Test concentrations ranged from 0.01% down to that at which 50% mortalilty occurred. The LC50 values are expressed below in Table 3 under the heading "MW" in terms of percent of the test compound in solution.

SMILES | LC50 HF [1] [µg] | LC50 TBW E [2] [%] | LC50 CL [3] [%] | LC50 MW [4] [%]
CC(C)C(=Nc1cccc(Cl)c1)OCc1ccc(F)c(Oc2ccc(Cl)cc2)c1 [Compound 390] | < 100 | 0.045 | 0.0021 | > 0.01
CC(C)C(=Nc1ccc(I)c(Cl)c1)OCc1cccc(Oc2ccc(Cl)cc2)n1 [Compound 471] | < 100 | 0.018 | 0.00018 | > 0.01
CC(C)C(=Nc1ccc2c(c1)OCO2)OCc1coc(Cc2ccccc2)c1 [Compound 483] | 6 | 0.05 | 0.001 | > 0.01
Cc1cc(N=C(OCc2ccc(F)c(Oc3ccc(Cl)cc3)c2)C(C)C)ccc1Br [Compound 407] | > 100 | 0.05 | > 0.1 | > 0.01
CC(Br)C(=Nc1ccc2c(c1)OCO2)OCc1cccc(Oc2ccccc2)c1 (stereo not drawn) [Compound 306] | > 100 | 0.1 | 0.005 | > 0.01
CC(C)C(=Nc1cccc(C(F)(F)F)c1)OC(C)c1cccc(Oc2ccccc2)c1 (stereo not drawn) [Compound 459] | > 100 | 0.1 | 0.008 | > 0.01
CCOc1ccc(N=C(OCc2ccc(F)c(Oc3ccc(Cl)cc3)c2)C(C)C)cc1 [Compound 372] | > 100 | > 0.1 | > 0.1 | > 0.01
CCOc1ccc(N=C(OCc2cccc(Oc3ccccc3)c2)C(C)C)cc1 [Compound 371] | < 100 | > 0.1 | 0.0022 | > 0.01
CC(C)C(=Nc1cccc(C(F)(F)F)c1)OCc1cccc(Oc2ccc(Cl)cc2)n1 [Compound 477] | 20 | > 0.1 | 0.0003 | 0.0076
CC(C)C(=Nc1ccc(F)c(I)c1)OCc1cccc(Oc2ccc(F)cc2)c1 [Compound 449] | 13 | 0.025 | 0.0001 | 0.0075
CCc1ccc(N=C(OCc2cccc(Oc3ccc(F)cc3)c2)C(C)C)cc1Cl [Compound 438] | > 100 | < 0.1 | 0.0009 | > 0.01
C=C(C)C(=Nc1ccc(F)c(Cl)c1)OCc1ccc(F)c(Oc2ccccc2)c1 [Compound 416] | < 100 | 0.018 | 0.00027 | > 0.01
CCOc1ccc(N=C(OCc2cccc(Oc3ccc(F)cc3)c2)C(C)C)cc1Br [Compound 446] | > 100 | < 0.1 | 0.0008 | > 0.01
CC(C)C(=Nc1ccc2c(c1)OC(F)(F)O2)OCc1cccc(Oc2ccccc2)n1 [Compound 556] | < 100 | 0.04 | 0.0007 | > 0.01
CC(C)C(=Nc1ccc(OCC(F)(F)F)c(Cl)c1)OCc1ccc(F)c(Oc2ccccc2)c1 [Compound 424] | > 100 | 0.035 | 0.00038 | > 0.01
CC(C)C(=Nc1ccc(F)c(Cl)c1)OCc1ccnc(Oc2ccc(F)cc2)c1 [Compound 511] | 89 | > 0.1 | 0.0012 | > 0.01
CC(C)C(=Nc1cccc(Cl)c1)OCc1ccc(F)c(Oc2ccc(F)cc2)c1 [Compound 341] | 4 | 0.023 | 0.0005 | > 0.01
CC(C)C(=Nc1ccc(S(C)(=O)=O)cc1)OCc1ccc(F)c(Oc2ccc(F)cc2)c1 [Compound 414] | < 100 | > 0.1 | 0.0024 | > 0.01
Cc1cc(N=C(OCc2ccc(F)c(Oc3ccccc3)c2)C(C)C)ccc1F [Compound 400] | < 100 | 0.025 | 0.0007 | > 0.01
CC(C)C(=Nc1ccc(OC(F)(F)C(F)Cl)cc1)OCc1cccc(Oc2ccccc2)c1 (stereo not drawn) [Compound 418] | > 100 | > 0.1 | > 0.1 | > 0.01
CC(C)C(=Nc1ccc(Cl)c(F)c1)OCc1ccc(F)c(Oc2ccc(F)cc2)c1 [Compound 441] | < 100 | 0.016 | 0.000025 | 0.006
